For orientation: IC50 means the concentration at which inhibition is half-maximal.

Here are results for two compounds from ChEMBL document CHEMBL5726098, “Arylquinazolines” (2019).

For the experiment, the target named is DNA-dependent protein kinase catalytic subunit (Homo sapiens, UniProt P78527). Kind of experiment: DNA-PK Assay (Biochemical): The kinase assay was carried out in streptavidin-coated […] microtitre flashplates. […] The reaction was stopped using 50 μl/well of 200 mM EDTA. After incubation for a further 30 min at room temperature, the liquid was removed. Each well was washed three times with 100 μl of 0.9% saline solution. A nonspecific reaction (blank value) was determined using 10 μM of an innate kinase inhibitor. The radioactivity measurement was carried out using a TopCount. IC50 values were calculated in RS1.
Chain of DNA-dependent protein kinase catalytic subunit (P78527 whole entry): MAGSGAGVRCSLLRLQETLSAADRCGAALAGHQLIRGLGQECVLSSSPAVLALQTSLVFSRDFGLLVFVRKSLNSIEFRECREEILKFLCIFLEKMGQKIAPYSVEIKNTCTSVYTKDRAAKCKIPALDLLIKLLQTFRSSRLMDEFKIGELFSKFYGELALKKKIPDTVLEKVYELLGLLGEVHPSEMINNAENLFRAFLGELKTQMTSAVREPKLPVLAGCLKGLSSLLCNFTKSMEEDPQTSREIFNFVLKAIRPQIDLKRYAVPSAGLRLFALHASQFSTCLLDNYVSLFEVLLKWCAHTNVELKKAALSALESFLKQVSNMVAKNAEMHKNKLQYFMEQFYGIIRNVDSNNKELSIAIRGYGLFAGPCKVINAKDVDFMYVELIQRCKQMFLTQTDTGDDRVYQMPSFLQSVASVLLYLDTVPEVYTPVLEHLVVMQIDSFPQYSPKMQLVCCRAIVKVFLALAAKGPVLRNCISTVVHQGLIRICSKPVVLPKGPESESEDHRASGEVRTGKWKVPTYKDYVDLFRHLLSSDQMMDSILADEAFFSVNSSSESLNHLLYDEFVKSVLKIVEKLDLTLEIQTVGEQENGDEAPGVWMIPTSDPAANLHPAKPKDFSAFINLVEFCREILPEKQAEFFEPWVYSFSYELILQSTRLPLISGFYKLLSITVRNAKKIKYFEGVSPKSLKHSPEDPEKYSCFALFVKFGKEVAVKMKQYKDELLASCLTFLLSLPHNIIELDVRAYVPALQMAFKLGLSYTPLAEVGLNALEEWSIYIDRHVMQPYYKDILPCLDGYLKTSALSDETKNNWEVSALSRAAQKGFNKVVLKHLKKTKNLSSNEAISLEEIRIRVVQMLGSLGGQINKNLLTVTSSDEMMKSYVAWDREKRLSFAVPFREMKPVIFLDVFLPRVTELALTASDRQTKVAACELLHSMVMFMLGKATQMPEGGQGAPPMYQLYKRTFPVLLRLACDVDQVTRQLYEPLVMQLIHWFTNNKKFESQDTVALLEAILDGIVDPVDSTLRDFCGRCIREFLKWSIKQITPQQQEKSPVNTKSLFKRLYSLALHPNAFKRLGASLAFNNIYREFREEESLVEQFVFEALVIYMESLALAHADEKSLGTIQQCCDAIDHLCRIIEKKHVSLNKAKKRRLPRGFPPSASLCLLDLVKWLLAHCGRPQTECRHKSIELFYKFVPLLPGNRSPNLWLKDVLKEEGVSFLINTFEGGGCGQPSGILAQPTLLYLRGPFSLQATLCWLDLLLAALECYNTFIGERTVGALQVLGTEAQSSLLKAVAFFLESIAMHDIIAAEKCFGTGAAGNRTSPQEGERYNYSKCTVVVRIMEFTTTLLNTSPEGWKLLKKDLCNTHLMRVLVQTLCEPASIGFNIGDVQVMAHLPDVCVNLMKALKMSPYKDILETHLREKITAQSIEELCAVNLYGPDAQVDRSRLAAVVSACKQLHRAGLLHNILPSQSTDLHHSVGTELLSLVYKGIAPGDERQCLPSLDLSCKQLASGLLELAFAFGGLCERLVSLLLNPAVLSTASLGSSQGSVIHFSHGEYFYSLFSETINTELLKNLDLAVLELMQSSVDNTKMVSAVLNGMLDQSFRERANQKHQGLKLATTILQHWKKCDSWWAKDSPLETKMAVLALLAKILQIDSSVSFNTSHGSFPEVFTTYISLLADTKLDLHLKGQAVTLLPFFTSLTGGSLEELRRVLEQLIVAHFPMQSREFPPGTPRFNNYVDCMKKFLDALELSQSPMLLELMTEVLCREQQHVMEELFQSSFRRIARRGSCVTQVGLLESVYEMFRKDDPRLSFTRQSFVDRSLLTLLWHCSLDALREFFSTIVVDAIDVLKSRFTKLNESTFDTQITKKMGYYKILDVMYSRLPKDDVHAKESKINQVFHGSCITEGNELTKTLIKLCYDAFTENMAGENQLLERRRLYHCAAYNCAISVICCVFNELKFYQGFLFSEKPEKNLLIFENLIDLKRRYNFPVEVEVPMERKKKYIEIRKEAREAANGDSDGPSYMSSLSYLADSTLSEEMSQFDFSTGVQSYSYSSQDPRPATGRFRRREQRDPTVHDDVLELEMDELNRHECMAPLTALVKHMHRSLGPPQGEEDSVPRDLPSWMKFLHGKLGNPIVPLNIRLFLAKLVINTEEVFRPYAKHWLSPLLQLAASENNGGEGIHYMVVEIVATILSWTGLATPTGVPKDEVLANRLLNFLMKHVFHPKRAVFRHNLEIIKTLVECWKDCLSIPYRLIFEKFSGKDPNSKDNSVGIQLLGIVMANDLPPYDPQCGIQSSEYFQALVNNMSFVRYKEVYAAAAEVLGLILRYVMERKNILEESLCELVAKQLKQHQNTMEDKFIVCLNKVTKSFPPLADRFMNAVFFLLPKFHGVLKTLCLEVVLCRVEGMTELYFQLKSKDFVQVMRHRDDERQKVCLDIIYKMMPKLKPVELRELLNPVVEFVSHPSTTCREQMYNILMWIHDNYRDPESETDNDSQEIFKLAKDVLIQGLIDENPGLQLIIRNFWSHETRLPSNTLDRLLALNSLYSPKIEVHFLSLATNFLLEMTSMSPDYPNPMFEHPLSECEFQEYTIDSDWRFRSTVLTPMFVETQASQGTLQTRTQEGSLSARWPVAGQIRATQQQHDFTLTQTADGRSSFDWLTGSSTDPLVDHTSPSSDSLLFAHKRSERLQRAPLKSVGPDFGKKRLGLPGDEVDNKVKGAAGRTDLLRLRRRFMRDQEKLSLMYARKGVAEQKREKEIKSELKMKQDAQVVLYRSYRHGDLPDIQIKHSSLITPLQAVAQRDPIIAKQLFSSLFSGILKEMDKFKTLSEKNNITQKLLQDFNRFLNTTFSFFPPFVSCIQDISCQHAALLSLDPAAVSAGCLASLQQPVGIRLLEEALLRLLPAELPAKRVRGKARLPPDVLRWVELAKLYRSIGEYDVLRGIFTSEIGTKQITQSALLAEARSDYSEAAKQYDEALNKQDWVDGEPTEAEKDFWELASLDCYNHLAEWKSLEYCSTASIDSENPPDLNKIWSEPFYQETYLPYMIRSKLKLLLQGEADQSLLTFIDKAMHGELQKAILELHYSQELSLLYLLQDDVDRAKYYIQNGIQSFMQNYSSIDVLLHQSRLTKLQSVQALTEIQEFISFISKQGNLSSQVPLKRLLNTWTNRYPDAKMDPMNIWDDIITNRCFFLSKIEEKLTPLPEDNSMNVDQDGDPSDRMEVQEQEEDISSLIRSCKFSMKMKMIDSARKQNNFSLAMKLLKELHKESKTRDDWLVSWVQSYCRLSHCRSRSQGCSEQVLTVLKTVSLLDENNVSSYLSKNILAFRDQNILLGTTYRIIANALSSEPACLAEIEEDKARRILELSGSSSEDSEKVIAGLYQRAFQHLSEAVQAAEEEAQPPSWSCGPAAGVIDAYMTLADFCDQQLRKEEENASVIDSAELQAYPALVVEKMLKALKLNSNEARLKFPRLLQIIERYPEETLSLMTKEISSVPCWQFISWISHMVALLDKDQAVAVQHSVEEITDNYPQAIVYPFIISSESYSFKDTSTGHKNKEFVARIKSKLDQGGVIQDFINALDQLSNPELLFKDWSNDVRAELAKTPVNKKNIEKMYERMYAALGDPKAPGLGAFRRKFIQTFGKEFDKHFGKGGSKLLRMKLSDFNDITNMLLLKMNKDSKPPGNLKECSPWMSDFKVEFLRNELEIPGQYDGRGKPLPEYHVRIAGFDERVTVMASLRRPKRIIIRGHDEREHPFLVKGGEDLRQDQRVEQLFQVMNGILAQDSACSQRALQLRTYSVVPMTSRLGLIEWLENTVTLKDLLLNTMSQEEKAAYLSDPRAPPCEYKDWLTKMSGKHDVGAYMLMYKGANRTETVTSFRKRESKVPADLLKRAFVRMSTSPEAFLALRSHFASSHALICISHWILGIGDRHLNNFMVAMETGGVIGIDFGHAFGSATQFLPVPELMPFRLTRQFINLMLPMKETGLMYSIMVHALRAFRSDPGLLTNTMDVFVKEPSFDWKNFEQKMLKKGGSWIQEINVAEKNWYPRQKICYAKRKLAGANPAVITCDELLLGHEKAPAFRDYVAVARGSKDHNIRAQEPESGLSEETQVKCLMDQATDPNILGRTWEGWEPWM

In the case of `OCc1csc(C(O)c2cc(-c3ncnc4cc(N5C6CCC5COC6)ccc34)c(F)cc2Cl)n1` (configuration not stated), the IC50 was over 0.03 µM. Next, `NC(=O)C(c1cc(-c2ncnc3cc(N4CCOCC4)ccc23)c(F)cc1Cl)c1ncnn2cccc12` (configuration not stated): over 0.03 µM.
